As usually defined, the IC50 is the concentration that gives 50% inhibition.

In one experiment the test system is HCT-116. In words: SRB anti-proliferative assay. Type of experiment: cell-based. As to conditions: Homo sapiens; HCT-116, SRB, mean ± SE of 3. As to the method:
(§1) All the newly prepared target conjugates (7, 8a–c, 9 and 10a–e) were investigated for the prospective growth inhibitory actions against three different cancer cell lines viz.; A-549, MDA-MB-231, and HCT-116, using the sulforhodamine B colorimetric (SRB) assay. Staurosporine, a clinically used antitumor drug, was co-assayed as a reference agent for the experiment.
(§2) Examination of the cytotoxic activity for the target conjugates was carried out in accordance with the SRB colorimetric assay protocol, as described previously.
(§3) In vitro anti-proliferative activity assay
(§4) Cells at a concentration of 0.50 x
(§5) Sulfo-Rhodamine-B stain (SRB) assay.
(§6) cell to the wall of the plate.
(§7) wells were prepared for each individual dose).
(§8) Unbound dye was removed by four

The subject of the next experiment is MDA-MB-231. In words: SRB anti-proliferative assay. It is filed as cell-based. As to conditions: Homo sapiens; MDA-MB-231, SRB, mean ± SE of 3. As to the method:
as §1, §2, §3, §4, §5, §6, §7, §8

The next experiment deals with A-549. In words: SRB anti-proliferative assay. The conditions noted are these: Homo sapiens, A549; A-549, SRB, mean ± SE of 3. It is filed as cell-based. As for the experimental part: Staurosporine, a clinically used antitumor drug, was co-assayed as a reference agent for the experiment.
as §2, §3, §4, §5, §6, §7, §8

The next experiment has as its system CDK1. Details: method as in PMID 11439342. The conditions noted are these: CDK1 ref 4; cited from earlier work.
In a further experiment the target is CDK2 (Homo sapiens, UniProt P24941). As to conditions: CDK2 ref 4; cited from earlier work.
The test system of the next experiment is CDK5. Details: method as in PMID 11439342. The conditions noted are these: CDK5 ref 4; cited from earlier work.

Turning to `CCn1cc(C=NN=C2C(=O)Nc3ccc(Cl)cc32)c2ccccc21` [Compound 7], the results for the IC50 in the experiment with HCT-116, with MDA-MB-231 and with A-549 were 19.7 ± 1.28 µM, 27.6 ± 1.76 µM and 50 ± 3.37 µM, respectively.
With `C=CCn1cc(C=NN=C2C(=O)Nc3ccc(F)cc32)c2ccccc21` [Compound 10b], the IC50 in the experiment with HCT-116 was 36.3 ± 2.35 µM; in the experiment with MDA-MB-231 it was 54 ± 4.17 µM; in the experiment with A-549, 59.9 ± 3.58 µM.
In the case of `C=CCn1cc(/C=N/N=C2\C(=O)Nc3ccc(OC(F)(F)F)cc32)c2ccccc21` [Compound 10e], the IC50 is 37.4 ± 2.06 µM with HCT-116, 51.8 ± 3.77 µM with MDA-MB-231 and 40.2 ± 1.88 µM in the experiment on A-549.
`COc1cccc2c1C(=O)c1c(O)c3c(c(O)c1C2=O)C[C@@](O)(C(=O)CO)C[C@@H]3O[C@H]1C[C@H](N)[C@H](O)[C@H](C)O1` [Dox., doxorubicin, reference compound]: the IC50 came to 3.7 ± 0.24 µM in the experiment with HCT-116, 4.5 ± 0.29 µM in the experiment with MDA-MB-231 and 2.3 ± 0.17 µM in the experiment on A-549.
Regarding `O=C1Nc2ccccc2/C1=C1/Nc2ccccc2C1=NO` [Indirubin-3′-oxime], the IC50 in the experiment with CDK1 is 0.18 µM; on CDK2, 0.5 µM; with CDK5, 0.25 µM.

The record behind these values is article PMC7717600, “Novel [(N-alkyl-3-indolylmethylene)hydrazono]oxindoles arrest cell cycle and induce cell apoptosis by inhibiting CDK2 and Bcl-2: synthesis, biological evaluation and in silico studies” (Journal of Enzyme Inhibition and Medicinal Chemistry, 2020).
